Activity calls are given as the source filed them. The calls are words filed in the database; no cut-off is given here.
How the values were obtained:
GTP-binding protein Rheb [1] = target: T1, GTP-binding protein Rheb (Homo sapiens, UniProt Q15382); assay: Inhibition of RHEB in human HeLa cells assessed as decrease in phospho-S6 protein level at 100 uM after 4 hrs by Western blotting analysis; type: cell-based
HeLa [2] = assay: Induction of apoptosis in human HeLa cells assessed as increase in cellular degeneration at >100 uM after 24 hrs by DAPI-staining-based microscopic analysis; type: functional, cell-based
GTPase KRas = GTPase KRas (Homo sapiens, UniProt P01116); assay: Binding affinity to human K-RAS by NMR analysis
GTP-binding protein Rheb [3] = target: T1, GTP-binding protein Rheb; assay: Binding affinity to full-length Rheb (unknown origin) by NMR spectroscopic analysis
HeLa [4] = assay: Induction of apoptosis in human HeLa cells assessed as increase in cellular degeneration at 25 to 250 uM after 4 hrs by MTT assay; type: functional, cell-based

T1 sequence (Q15382 whole entry): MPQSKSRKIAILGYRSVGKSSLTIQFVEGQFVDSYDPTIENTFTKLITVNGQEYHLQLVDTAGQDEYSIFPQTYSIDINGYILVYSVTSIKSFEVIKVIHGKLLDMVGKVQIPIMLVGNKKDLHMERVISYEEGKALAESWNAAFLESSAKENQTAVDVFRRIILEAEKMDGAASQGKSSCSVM

Structure (SMILES) | inhibition (GTP-binding protein Rheb [1]) | Activity (HeLa [2]) | Kd (GTPase KRas) [µM] | Kd (GTP-binding protein Rheb [3]) [µM] | Activity (HeLa [4]) | inhibition (GTPase KRas)
CC(C)(c1ccc(O)cc1)c1ccc(O)cc1 [BISPHENOL A] | inactive | Active | 600 | 1800 | – | –
Oc1ccc(-c2ccc(O)cc2)cc1 | Active | – | – | 1500 | Active | inactive

From ChEMBL document CHEMBL3108714, “Bisphenol A binds to Ras proteins and competes with guanine nucleotide exchange: implications for GTPase-selective antagonists” (J Med Chem, 2013)
